The values below come from article PMC5120204, “Identification of an orally active small-molecule PTHR1 agonist for the treatment of hypoparathyroidism” (Nature Communications, 2016).

“Also recorded” adds a separate entry of the source.

One data set concerns the target T1, hPTHR1 (Homo sapiens, UniProt Q03431).
T1 construct: similar to that of cells expressing full-length hPTHR1; expressed in transfected cells; host or cells: COS-7 (transient, FuGENE HD)
T1 sequence (Q03431 27-593 E93Y/D94P/K95Y/E96D/A97V/T99D/G100Y/S101A): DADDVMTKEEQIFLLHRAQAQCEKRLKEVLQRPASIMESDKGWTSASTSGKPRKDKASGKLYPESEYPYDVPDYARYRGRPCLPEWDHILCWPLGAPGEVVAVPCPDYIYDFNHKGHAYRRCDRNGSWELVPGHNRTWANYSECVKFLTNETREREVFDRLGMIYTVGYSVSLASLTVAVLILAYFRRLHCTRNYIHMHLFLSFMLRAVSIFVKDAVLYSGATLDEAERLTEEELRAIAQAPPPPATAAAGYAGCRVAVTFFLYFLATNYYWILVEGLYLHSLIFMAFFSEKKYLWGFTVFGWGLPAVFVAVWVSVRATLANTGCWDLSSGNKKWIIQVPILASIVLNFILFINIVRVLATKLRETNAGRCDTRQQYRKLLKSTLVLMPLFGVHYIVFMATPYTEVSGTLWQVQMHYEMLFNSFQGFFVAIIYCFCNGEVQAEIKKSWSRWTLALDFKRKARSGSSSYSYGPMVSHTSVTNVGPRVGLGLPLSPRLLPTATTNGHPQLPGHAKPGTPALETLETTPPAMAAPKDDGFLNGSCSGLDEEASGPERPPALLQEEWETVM
Put plainly: Phospholipase C activity assay ([3H]-inositol phosphate) in COS-7 cells expressing hPTHR1. It is filed as cell-based. To be noted: COS-7 cells expressing hPTHR1, 40 min; concentration that achieves the EC50 for hPTH(1–34). As to the method: COS-7 cells (ATCC) were seeded into a 96-well flat-bottomed plate (1.4 × 10^4 cells per 100 μl per well) and incubated overnight. The next day, the COS-7 cells were transfected by adding 10 μl of a mixture of hPTHR1 plasmid or empty vector (0.1 μg per well), FuGENE HD Transfection Reagent (0.4 μl per well, Promega), and Opti-MEM I Reduced Serum Medium (10 μl per well, Life Technologies) to each well. On the second day after the cells were seeded into the plate, the culture medium in the wells was discarded, and 100 μl of ^3H-myoinositol/0.1% BSA/DMEM adjusted to 111 kBq ml^−1 (PerkinElmer, Inc.) was added to each well. […] After that, the ^3H radioactivity was measured using a liquid scintillation analyzer. EC50 values were determined from three independent experiments in […] by a non-linear regression Emax model (JMP ver.9.0.2, SAS Institute). […] The geometric means of the EC50 values obtained in three experiments in duplicate were calculated using Microsoft Office Excel 2007.

For data set [1], the system named is 12 class B GPCRs (CGRP, calcitonin, CRF1, CRF2α, GLP-1, GLP-2, glucagon, secretin, GHRH, PAC1, VPAC1 and VPAC2). Briefly: Selectivity assay (Cerep), agonist and antagonist cAMP assays. It is filed as cell-based. The following applies: at 1 or 10 μmol l^−1; activity defined as >25% of positive control. As to the method:
Selectivity assays against class B GPCRs were performed by Cerep (France). Agonistic and antagonistic effects of PCO371 against a panel of 12 class B GPCRs (CGRP, calcitonin, CRF1, CRF2α, GLP-1, GLP-2, glucagon, secretin, GHRH, PAC1, VPAC1 and VPAC2) were examined at PCO371 concentrations of 1 and 10 μmol l^−1. The following cell lines were used; T47D (calcitonin), βTC6 (GLP-1), HT-29 (VPAC1, VPAC2), CHO (CGRP, CRF1, GLP-2, Glucagon, Secretin, GHRH and PAC1, recombinant), and HEK-293 (CRF-2, recombinant). Their antagonistic activity was measured in the presence of the control agonists shown in Supplementary Table 1. In agonist and antagonist experiments, intracellular cAMP levels were determined with the HTRF detection system. EC50 and IC50 values of control agonists or antagonists were calculated by non-linear regression analysis of the concentration-response curves generated with mean replicate values using Hill equation curve-fitting using the formula: equation (2).
Y=response, A=left asymptote of the curve, D=right asymptote of the curve, C=compound concentration, C50=EC50 or IC50, nH=slope factor. Agonistic activity of PCO371 at 1 or 10 μmol l^−1 was calculated as a per cent of the control agonist response; intracellular cAMP accumulation by PCO371 × 100/intracellular cAMP accumulation by the control agonist at the EC50 concentration. […]
For orientation: cAMP levels reflect the balance of adenylyl cyclase and phosphodiesterase activity.

The test system of another data set is normal dogs. Briefly: Preclinical toxicology studies. In kind it is in vivo, dog.

Broadly, the EC50 is the concentration at which the effect is half-maximal. Consider `Cc1cc(N2C(=O)NC(=O)C2(C)C)cc(C)c1CCS(=O)(=O)N1CCC2(CC1)N=C(c1ccc(OC(F)(F)F)cc1)NC2=O` [PCO371, 1-{3,5-dimethyl-4-[2-({4-oxo-2-[4-(trifluoromethoxy)phenyl]-1,3,8-triazaspiro[4.5]dec-1-en-8-yl}sulfonyl)ethyl]phenyl}-5,5-dimethylimidazolidine-2,4-dione], for which a half-maximal effect on hPTHR1 (EC50) was put at 17 µM. Besides, the “agonistic and antagonistic activities against 12 class B GPCRs” value in data set [1] is “did not show agonistic or antagonistic activity; also recorded: did not exhibit activity”. The serious side effects entry was “not any serious side effects” with normal dogs (one-month toxicology studies in normal dogs) and “no serious side effects” with normal dogs (preclinical toxicology studies).
